According to patent US7144867B2, “Anticancer glycoside compounds” (priority 2004, dated 2006):

Key:
[1] = system: DLD-1 (human colon adenocarcinoma); test: cells; conditions: for Percent Growth (Mean ± SEM, n = 2): 72-hour
Procedure: Test Substance and Concentration. Frondoside A (CBR-24) was dissolved in 100% DMSO and then diluted with sterile distilled water to obtain initial working solutions of 10000, 1000, 100, 10, and 1 μM in 40% DMSO. A 100-fold dilution was further made in culture media to generate final assay concentration of 100, 10, 1, 0.1 and 0.01 μM in 0.4% of DMSO.
Cell Line and Culture Media. The tumor cell line DLD-1 (human colon adenocarcinoma), obtained from American Type Culture Collection (ATCC CCL-221), was incubated in 95% air-5% CO2 gas mixture at 37° C. The culture medium used was RPMI 1640 with 10% fetal bovine serum, which was supplemented with 1% Antibiotic-Antimycotic.
Evaluation of anti-proliferation for test substances. Aliquots of 100 μl of cell suspension (about 2.5×10^3 cells/well) were placed in 96-well microtiter plates in an atmosphere of 5% CO2 at 37° C. […] Thus, the final concentration of DMSO was 0.4%. The Frondoside A was evaluated for possible inhibitory effects on cell proliferation at concentrations of 100, 10, 1, 0.1 and 0.01 μM. At the end of incubation, 20 μl of 90% alamarBlue reagent was added to each well for another 6 hour incubation before detection of cell viability by fluorescent intensity. Fluorescent intensity was measured using a Spectrafluor Plus plate reader with excitation at 530 nm and emission at 590 nm.
Determination of IC50, TGI and LC50. The measured results were calculated by the following formula: PG(%)=100%×(Mean Ftest−Mean Ftime0)/(Mean Fctrl−Mean Ftime0) If (Mean Ftest−Mean Ftime0)<0, then PG (%)=100%×(Mean Ftest−Mean Ftime0)/(Mean Ftime0−Mean Fblank) Where: • PG: percent growth • Mean Ftime0=The average of 2 measured fluorescent intensities of reduced alamarBlue at the time just before exposure of cells to the test substance. • Mean Ftest=The average of 2 measured fluorescent intensities of alamarBlue after 72-hour exposure of cells to the test substance. • Mean Fctrl=The average of 2 measured fluorescent intensities of alamarBlue after 72-hour incubation without the test substance. • Mean Fblank=The average of 2 measured fluorescent intensities of alamarBlue in medium without cells after 72-hour incubation.

p21 = test: Western blotting, p21 in AsPC-1 cells; assay type: cell-based, human; conditions: 4 μg/mL, time-dependent (FIG. 5)
Procedure: Western blotting. Cells were seeded into flasks and cultured to 50% to 60% confluence for 24 hours. Cells were then placed in serum-free medium with or without 4 μg/mL frondoside A for periods of 0, 24, 48 and 72 hours respectively. Proteins were extracted from attached and floating cells in lysis buffer containing 4% SDS. Protein concentrations were determined using the bicinchoninic acid assay with BSA as standard. Western blotting was carried out. In brief, equal amounts of protein in the cell lysates were separated on 15% SDS-PAGE and the proteins were transferred onto nitrocellulose membranes. After blocking non-specific sites with dried milk, membranes were incubated with the appropriate dilution of primary antibody. Membranes were then incubated with a horseradish peroxidase conjugated secondary antibody. Proteins were detected using an enhanced chemiluminescence detection system.

[2] = system: angiogenesis in the animal; test: Treatment of animals, anti-angiogenic evaluation (Example 6); assay type: in vivo; conditions: contemplated; range of appropriate doses
Procedure: Frondoside A or B is evaluated for anti-angiogenic (e.g., for research, drug screening or therapeutic purposes) in live animals. Animals (e.g., having or modeling a disease characterized by unwanted angiogenesis) are treated with a range of appropriate doses of Frondoside A or B. Exemplary dosages and dosage schedules include, but are not limited to, those described herein.

AsPC-1 cells [3] = test: Cell proliferation by cell counting; assay type: cell-based, human; conditions: 4 μg/mL
Procedure: Cell culture. The poorly differentiated human pancreatic cancer line AsPC-1 was purchased from the American Type Culture Collection (ATCC, Manassas, Va., USA). Cells were cultured in MEM medium supplemented with penicillin G (100 U/mL), streptomycin (100 U/mL) and 10% FBS at 37° C. in humidified air with 5% CO2. Cells were harvested by incubation in trypsin-EDTA solution for 10–15 minutes. Cells were then centrifuged at 300×g for 5 minutes and cell pellets were suspended in fresh culture medium prior to seeding into culture flasks or plates.
Cell proliferation assay. Cell growth was analyzed by ^3H-methyl thymidine incorporation and cell counting. Following treatment of pancreatic cancer cells with a series of concentrations of frondoside A from 1 μg/mL to 16 μg/mL, cellular DNA synthesis was assayed by adding ^3H-methyl thymidine at 0.5 μLCi/well. After 2 hours incubation, the cells were washed twice with PBS, precipitated with 10% TCA for two hours, and solubilized from each well with 0.5 ml of 0.4 N NaOH. Incorporation of ^3H-methyl thymidine into DNA was measured by adding scintillation liquid and counting in a scintillation counter (LKB BackBeta, Wallac, Turku, Finland). […] The cells were counted using Z1-Coulter Counter (Luton, UK).

AsPC-1 cells [4] = test: Morphological studies (apoptosis); assay type: cell-based, human; conditions: 4 μg/mL, within 24 hours
Procedure: Morphological studies. The photomicrographs of cell morphological changes were taken with a Kodak DC 120 digital zoom camera under an inverted microscope (400×) following treatment with or without 4 μg/mL frondoside A for different time periods from 24 to 72 hours.

Question: What does the source list for `COC1C(O)C(CO)OC(OC2C(O)COC(OC3C(C)OC(OC4C(OC5CCC6(C)C7CCC89C(=O)OC(C)(CCCC(C)C)C8C(OC(C)=O)CC9(C)C7=CCC6C5(C)C)OCC(OS(=O)(=O)[O-])C4O)C(OC4OCC(O)C(O)C4O)C3O)C2O)C1O.[Na+]` [Frondoside A, 3-O-methyl-β-D-glucopyranosyl-(1→3)-β-D-xylopyranosyl-(1→4)-[β-D-xylopyranosyl-(1→2)]-β-D-quinovopyranosyl-(1→2)-4-O-sodium sulfate-β-D-xylopyranosyl-3-O-holost-7(8)-en-3β-ol-16β-O-acetate]?
Answer: growth inhibition of DLD-1 cells relative to the vehicle-treated control ([1]; 10 μM and 100 μM (≦50% of cell proliferation)): significant growth inhibition; Percent Growth (Mean ± SEM, n = 2) ([1]; DLD-1, 0.01 μM): 93 ± 5%; Percent Growth (Mean ± SEM, n = 2) ([1]; DLD-1, 0.1 μM): 84 ± 11%; Percent Growth (Mean ± SEM, n = 2) ([1]; DLD-1, 1 μM): 79 ± 5%; Percent Growth (Mean ± SEM, n = 2) ([1]; DLD-1, 10 μM): 12 ± 0%; Percent Growth (Mean ± SEM, n = 2) ([1]; DLD-1, 100 μM): −79 ± 5%; TGI (Total Growth Inhibition) ([1]; DLD-1, semi-quantitative, nonlinear regression): 12 µM; IC50 ([1]; read-out: IC50 (50% Inhibition Concentration), DLD-1, semi-quantitative, nonlinear regression): 3.6 µM; CC50 ([1]; read-out: LC50 (50% Lethal Concentration), DLD-1, semi-quantitative, nonlinear regression): 41 µM; expression of P21 (p21): markedly increased; angiogenesis in the animal [2]: inhibits angiogenesis; cell number compared to control (AsPC-1 cells [3]; 48 and 72 hours): marked and progressive decrease in cell number; cell number compared to control (AsPC-1 cells [3]; first 24 hours): no obviously effect; morphological changes (AsPC-1 cells [4]): marked morphological changes characteristic of apoptosis
